From ChEMBL document CHEMBL6109077, “Design, synthesis and in vitro validation of bivalent binders of SARS-CoV-2 spike protein: Obeticholic, betulinic and glycyrrhetinic acids as building blocks” (Bioorg Med Chem, 2025)
Calls of active or inactive are those of the source. The rule behind the calls is not given here.

Target: Glycoprotein (Vesicular stomatitis Indiana virus (strain San Juan) (VSIV)) (UniProt P03522)
Assay: Inhibition of glycoprotein in pseudotyped Vesicular stomatitis virus infected in 293T/ACE2 cells assessed as reduction in viral entry at 10 uM preincubated with virus for 1 hr followed by cell infection and measured after 48 hrs by bright-glo luciferase reporter gene assay
Type: cell-based
Conditions: time 49.0 hrs

Glycoprotein (Vesicular stomatitis Indiana virus (strain San Juan) (VSIV)), sequence (P03522 whole entry): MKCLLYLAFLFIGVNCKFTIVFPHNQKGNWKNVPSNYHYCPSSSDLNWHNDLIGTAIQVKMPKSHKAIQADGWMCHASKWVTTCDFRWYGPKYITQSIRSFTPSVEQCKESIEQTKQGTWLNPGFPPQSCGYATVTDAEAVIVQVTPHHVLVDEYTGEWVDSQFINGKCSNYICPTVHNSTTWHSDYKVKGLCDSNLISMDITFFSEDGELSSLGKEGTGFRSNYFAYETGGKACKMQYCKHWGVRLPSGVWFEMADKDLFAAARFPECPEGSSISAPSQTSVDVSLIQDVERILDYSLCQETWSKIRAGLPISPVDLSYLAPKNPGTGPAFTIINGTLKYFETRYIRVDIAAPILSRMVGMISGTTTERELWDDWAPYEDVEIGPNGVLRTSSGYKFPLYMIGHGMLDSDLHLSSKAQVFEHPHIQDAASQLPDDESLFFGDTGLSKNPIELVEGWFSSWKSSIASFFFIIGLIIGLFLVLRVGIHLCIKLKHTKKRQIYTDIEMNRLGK

| Compound | inhibition |
| --- | --- |
| C=C(C)[C@@H]1CC[C@]2(C(=O)OC)CC[C@@]3(C)[C@@H]4CC[C@@H]5[C@H](CC[C@H](OC(=O)CCCCc6cn(CCCCCCNC(=O)CC[C@@H](C)[C@H]7CC[C@H]8[C@@H]9[C@H](O)[C@H](CC)[C@@H]%10C[C@H](O)CC[C@]%10(C)[C@H]9CC[C@]78C)nn6)C5(C)C)[C@H]4CC[C@@H]3[C@@H]12 | inactive |
| C=C(C)[C@@H]1CC[C@]2(C(=O)OC)CC[C@]3(C)[C@H](CC[C@@H]4[C@@]5(C)CC[C@H](OC(=O)CCCCCCCCNC(=O)CC[C@@H](C)[C@H]6CC[C@H]7[C@@H]8[C@H](O)[C@H](CC)[C@@H]9C[C@H](O)CC[C@]9(C)[C@H]8CC[C@]67C)C(C)(C)[C@@H]5CC[C@]43C)[C@@H]12 | inactive |
| C=C(C)[C@@H]1CC[C@]2(C(=O)OC)CC[C@]3(C)[C@H](CC[C@@H]4[C@@]5(C)CC[C@H](OC(=O)CCCNC(=O)CC[C@@H](C)[C@H]6CC[C@H]7[C@@H]8[C@H](O)[C@H](CC)[C@@H]9C[C@H](O)CC[C@]9(C)[C@H]8CC[C@]67C)C(C)(C)[C@@H]5CC[C@]43C)[C@@H]12 | inactive |
| CC[C@H]1[C@@H](O)[C@@H]2[C@H](CC[C@]3(C)[C@@H]([C@H](C)CCC(=O)NCCCCCCn4cc(CCCCC(=O)O[C@H]5CC[C@H]6[C@@H](CC[C@]7(C)[C@@H]6C(=O)C=C6[C@@H]8C[C@@](C)(C(=O)OC)CC[C@]8(C)CC[C@]67C)C5(C)C)nn4)CC[C@@H]23)[C@@]2(C)CC[C@@H](O)C[C@@H]12 | inactive |
